Tests used:
[1] = test system: porcine precision cut lung slices; assay: Airway contraction in precision cut lung slices in response to methacholine; type: cell-based; settings: WT newborn pig lung slices pretreated overnight with 10 μM compound vs DMSO
Excerpt: FIG. 1. NVP-TAE684 decreases airway contraction in porcine precision cut lung slices. Percent airway lumen area contraction in response to methacholine in porcine precision cut lung slices pretreated with control vehicle (DMSO, black circles) or NVP-TAE684 (grey circles), normalized to maximal contractile response (n=6 animals per group). Data are shown as mean values with SEM and are fitted with a four-parameter logistic regression algorithm (solid line).
Precision cut lung slice preparation. Precision cut lung slices were isolated as previously described (11) from wild type newborn pigs. Lung slice culture media consisted of Dulbecco's Modified Eagle Medium (Gibco, Big Cabin, Okla.), 10% fetal bovine serum (Gibco, Big Cabin, Okla.), 1% penicillin-streptomycin (5,000 U/mL, Gibco, Big Cabin, Okla.), and 0.1% gentamicin (50 mg/mL, Gibco, Big Cabin, Okla.).
For the porcine lung slice studies, the tracheal bronchus from collected tracheal lobes was cannulated with a 24 G IV catheter (BD Medical) and a tight seal was created using suture. The tracheal lobe was instilled with approximately 10 mL of 2% UltraPure Low Melting Point agarose (Invitrogen, Carlsbad, Calif.) solution and cooled at −20° C. for 30 min. […] For all PCLS experiments, maximal airway contraction was analyzed for each dose by lumen area measurements performed in ImageJ (NIH). […]

[2] = test system: tracheal airway smooth muscle strips; assay: Airway smooth muscle strip isometric force generation following acetylcholine; type: cell-based, pig
Excerpt: FIG. 2. NVP-TAE684 decreases airway smooth muscle force generation. Wild-type airway smooth muscle strip isometric force generation following acetylecholine treatment in muscle strips pretreated with control vehicle (DMSO, black circles) or NVP-TAE684 (grey circles) (n=5 animals per group). Data are shown as mean values with SEM and are fitted with a four-parameter logistic regression algorithm (solid line).
Airway smooth muscle tissue and cells. Trachea from newborn WT […] or CFTR^−/− pigs was excised and placed in modified Krebs Solution containing (mM): 120.8 NaCl, 5.9 KCl, 0.2 CaCl2, 1.2 MgCl2, 1.2 NaH2PO4, 2 NaHCO3, 11 d-glucose, and 10 HEPES, pH 7.4. The trachealis muscle was dissected by removing the cartilage and epithelial layers. For force measurements, strips of trachealis smooth muscle were hung in a tissue perfusion system (Radnoti LLC, Monrovia, Calif.). For cell isolation, the remaining medial layers were minced and digested using a papain dissociation system (Worthington, Lakewood, N.J.) based upon previous studies (10). The minced smooth muscle was suspended in Earle's balanced salt solution (EBSS) containing papain (10 U/ml) and DNase (1000 U/ml) and incubated at 37° C. for 1 hr. Collagenase (0.5mg/m1) was added and after 1 hr the mixture triturated. Primary cells were grown to confluence in a 1:1 mixture of DMEM and Ham's F12 on fibrinogen-coated 6-well plates. All solutions contained 100 U/ml penicillin and 0.1 mg/ml streptomycin. Primary culture cells were allowed to grow for 8-10 d until confluent. […]
Measurement of airway smooth muscle force generation. […] The contractile activity was recorded with Grass isometric force transducers and amplifiers connected to a Biopac data acquisition system (Biopac Systems, Goleta, Calif.). […] The smooth muscle force from NVP-TAE684 or DMSO pretreated strips was determined by obtaining concentration-response curves to acetylcholine (10^−9 to 10^−2 M) in the muscle bath. […]

wild-type mice [3] = assay: In vivo airway resistance following methacholine challenge; settings: 100 μl of 5 mM, intraperitoneal, daily for 3 days, vs vehicle
Description: FIG. 3. In vivo treatment with NVP-TAE684 decreases cholinergic induced airway hyper-responsiveness. Mice were pretreated with control vehicle (DMSO, black circles) or NVP-TAE684 (grey circles) for 3 days (n=10 animals per group). Airway resistance following methacholine treatment was then determined. Data are shown as mean values with SEM and are fitted with a four-parameter logistic regression algorithm (solid line).
Measurement of in vivo airway resistance. WT mice were pretreated with either PYK2 inhibitor NVP-TAE684 (100 μl of 5 mM, 1% DMSO) or vehicle (1% DMSO) was given via intra-peritoneal injections daily for 3 days prior and including the day of pulmonary measurements. Mice were anesthetized with ketamine (50 or 100 mg/kg) and xylazine (0-10 mg/kg). Following tracheotomy, an 18-gauge cannula was inserted and securely tied with 4.0 braided silk. The animals were then mechanically ventilated with a computer-controlled small-animal ventilator (FlexiVent, SCIREQ, Montreal, Quebec) using a tidal volume of 8 mL/kg at a rate of 180 breaths/min and PEEP of 3.5 cm H2O. Pulmonary resistance was measured by the computer controlled ventilator by interrupting ventilation and imposing broadband low-frequency oscillatory waveforms and then resuming ventilation. […]

wild-type mice [4] = assay: Morphologic analysis of histological sections of treated mice; type: in vivo
Recombinant human PYK2 = Recombinant human PYK2 (Homo sapiens, UniProt Q14289); assay: ADP-based phosphatase-coupled kinase assay (malachite green); type: biochemical; settings: 10, 25, or 100 μM compound vs DMSO; PYK2 0.5 and 2 μg/ml
Description: FIG. 4. Recombinant human PYK2 was treated with either DMSO or 10, 25, or 100 μM ceritinib. PYK2 activity was measured by using an ADP-based phosphatase-coupled kinase assay. ADP from PYK2 activity releases an inorganic phosphate via a coupling enzyme and is detected using malachite green reagent. The amount of inorganic phosphate released is proportional to the amount of ADP generated during the kinase reaction. Two concentrations of PYK2 (0.5 and 2 μg/ml) were tested.

[5] = pretreated with 10 μM compound vs DMSO

Sequence of Recombinant human PYK2 (Q14289 whole entry): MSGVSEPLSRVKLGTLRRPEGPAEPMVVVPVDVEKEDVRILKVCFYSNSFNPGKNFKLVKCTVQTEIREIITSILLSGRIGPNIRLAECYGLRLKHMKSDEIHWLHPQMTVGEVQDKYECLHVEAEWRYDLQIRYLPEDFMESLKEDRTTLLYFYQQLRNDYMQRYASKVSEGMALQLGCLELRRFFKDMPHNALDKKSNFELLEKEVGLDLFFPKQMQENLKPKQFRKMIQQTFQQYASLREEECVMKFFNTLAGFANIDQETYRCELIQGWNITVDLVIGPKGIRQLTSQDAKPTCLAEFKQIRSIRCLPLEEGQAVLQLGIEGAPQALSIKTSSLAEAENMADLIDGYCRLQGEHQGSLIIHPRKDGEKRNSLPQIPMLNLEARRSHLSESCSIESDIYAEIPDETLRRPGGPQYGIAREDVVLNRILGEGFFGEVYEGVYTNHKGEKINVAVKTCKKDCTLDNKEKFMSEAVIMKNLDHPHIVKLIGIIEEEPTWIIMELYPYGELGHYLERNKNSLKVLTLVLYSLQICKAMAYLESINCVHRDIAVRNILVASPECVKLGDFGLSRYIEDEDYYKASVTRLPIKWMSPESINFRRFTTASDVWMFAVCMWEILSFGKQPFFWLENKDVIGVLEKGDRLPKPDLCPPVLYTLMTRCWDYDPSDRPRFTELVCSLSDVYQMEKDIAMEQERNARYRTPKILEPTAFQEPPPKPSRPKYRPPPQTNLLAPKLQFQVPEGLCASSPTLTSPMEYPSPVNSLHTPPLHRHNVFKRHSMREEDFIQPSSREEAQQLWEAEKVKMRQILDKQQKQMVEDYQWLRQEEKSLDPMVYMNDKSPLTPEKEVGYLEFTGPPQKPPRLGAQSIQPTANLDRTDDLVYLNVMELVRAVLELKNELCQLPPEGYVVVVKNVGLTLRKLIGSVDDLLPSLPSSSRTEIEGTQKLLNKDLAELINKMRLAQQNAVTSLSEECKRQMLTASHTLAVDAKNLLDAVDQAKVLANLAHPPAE

| Compound | airway narrowing in response to increasing dosages of methacholine, measured by luminal area [1] | maximal force production ([2]; newborn WT pig tracheal muscle strips pretreated with 10 μM compound, acetylcholine dose response) [mN] | force generation in tracheal smooth muscle strips across all doses of acetylcholine [2, 5] | median effective concentrations of acetylcholine, compound-pretreated vs DMSO-pretreated strips [2, 5] | respiratory response to inhaled methacholine (airway resistance) (wild-type mice [3]) | drug-induced toxicity in histological sections of heart, kidney, and liver (wild-type mice [4]; mouse, in vivo) | changes in epithelia, cartilage or airway smooth muscle layers (lung parenchyma, conducting airways, trachea sections) (wild-type mice [4]; treated mice vs vehicle control mice) | PYK-2 activity (Recombinant human PYK2) |
| --- | --- | --- | --- | --- | --- | --- | --- | --- |
| COc1cc(N2CCC(N3CCN(C)CC3)CC2)ccc1Nc1ncc(Cl)c(Nc2ccccc2S(=O)(=O)C(C)C)n1 [NVP-TAE684] | decreased the airway narrowing | 40 | decreased force generation | no significant differences | significantly decreased | no evidence of drug-induced toxicity | no significant changes | – |
| Cc1cc(Nc2ncc(Cl)c(Nc3ccccc3S(=O)(=O)C(C)C)n2)c(OC(C)C)cc1C1CCNCC1 [ceritinib] | – | – | – | – | – | – | – | dose-dependent decrease |
